Results: PubChem BioAssay AID179 (DTP/NCI, 2004)
pEC50, pIC50: −log10 of the molar value. Activity calls are given as the source filed them.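 How the source made its calls: active means compounds giving half or more protection of infected cells from virus-caused growth loss, again on retest; inactive means the rest.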

System: CEM cells HIV-1 protection, formazan growth assay
Assay: NCI AIDS Antiviral Assay
Settings: for pIC50: measured here: growth of uninfected CEM cells
Summary of the method: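 Human CEM cells, uninfected and HIV-1-infected, exposed to five drug concentrations; growth measured by soluble formazan assay and scored as percent protection from infection, with protecting compounds retested.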

## O=C(Nc1ccn(C2CCC(COC(c3ccccc3)(c3ccccc3)c3ccccc3)O2)c(=O)n1)c1ccccc1 (configuration not stated)
  pEC50: < 3.70
  pIC50: 5.01

## COc1ccc(N(C(=O)Nc2ccc(Cl)c(Cl)c2)c2ccccc2)cc1
  pEC50: < 3.70
  pIC50: 3.90

## Cc1cc(C)nc(NS(=O)(=O)c2ccc(NC(=O)c3ccc(Cl)c4c(Nc5ccc(S(=O)(=O)Nc6nc(C)cc(C)n6)cc5)c5ccccc5nc34)cc2)n1
  pEC50: < 4.34
  pIC50: 4.61

## COc1ccccc1-n1c(NN)nc2ccc(Br)cc2c1=O
  pEC50: < 3.86
  pIC50: 4.51

## N#Cc1c2c(c(N)oc1=O)C(c1ccccc1)CC(=O)N2 (configuration not stated)
  pEC50: < 3.70
  pIC50: < 3.70

## CC(=O)N1N=C(c2ccc3ccccc3c2O)CC1c1cccs1 (configuration not stated)
  pEC50: < 3.70
  pIC50: 4.92

## CC1=C(C(=O)Nc2ccccc2C)C(c2ccco2)C(C(=O)Nc2ccccc2C)=C(C)N1C
  pEC50: < 4.66
  pIC50: < 4.66

## CCCN=C1NC(C)=CSC(Nc2ccccc2)=C1C#N
  pEC50: < 3.70
  pIC50: < 3.70

## CCOC(=O)/C(=C/c1cn(C(C)=O)c2ccccc12)P(=O)(OC)OC
  pEC50: < 3.70
  pIC50: 4.14

## COC(=O)C(=O)C(C(=O)C(=O)Nc1ccc(C)cc1C)c1nc2ccc(Cl)cc2[nH]c1=O (configuration not stated)
  pEC50: < 4.24
  pIC50: 4.32

## [N-]=[N+]=CC(=O)OC(CCl)CCl
  pEC50: < 3.70
  pIC50: < 3.70

## CSC1=Nc2ccccc2SC(c2ccccc2)C1c1ccccc1 (configuration not stated)
  pEC50: < 4.31
  pIC50: 4.45

## COc1cccc(-c2nnc(N)o2)c1
  outcome: inactive

## Cn1cnc([N+](=O)[O-])c1S
  pEC50: < 3.70
  pIC50: 4.17

## O=c1/c(=C\c2ccc(Cl)c(Cl)c2)sc2n1CCN=2
  pEC50: < 3.70
  pIC50: < 3.70

## O=c1ccc2ccccc2n1Cc1ccc2ccccc2n1
  pEC50: < 3.70
  pIC50: 3.83

## CC(=O)O[C@H]1CC[C@H]2[C@@H]3CCC(C(C)=O)[C@H](C(=O)O)[C@H]3CC[C@]12C (some centres not stated)
  pEC50: < 3.70
  pIC50: < 3.70

## CCCCCCCCCCCCCCCc1cc(O)ccc1N=O
  pEC50: < 3.70
  pIC50: 5.59

## CC1=NN(C(=O)CC(=O)Nc2ccccc2Cl)C(=O)C1N=Nc1ccc(S(=O)(=O)c2ccc(N=NC3C(=O)N(C(=O)CC(=O)Nc4ccccc4Cl)N=C3C)cc2)cc1 (configuration not stated)
  pEC50: < 4.00
  pIC50: < 4.00

## COC(=O)C(C(=O)C(=O)Nc1c(C)cccc1C(C)(C)C)c1nc2ccc(Cl)cc2[nH]c1=O (configuration not stated)
  pEC50: < 4.26
  pIC50: < 4.26

## O=S(=O)(C=C=CCO)c1ccccc1
  outcome: inactive

## CNC(=S)/N=C(\N)N(C)C
  outcome: inactive

## O=C1C(Br)=C[C@H]2C3C=CC(Br)(C3=O)[C@@H]12 (some centres not stated)
  pEC50: < 3.10
  pIC50: 5.43

## CN(Cc1cnc2nc(N)nc(N)c2n1)c1ccc(C(=O)NC(CCC(=O)NCC(P(=O)(O)O)P(=O)(O)O)C(=O)O)cc1 (configuration not stated)
  pEC50: < 3.70
  pIC50: 5.91

## O=C1CCc2cc3c(cc21)CC1(Cc2ccccc2C1)C3
  pEC50: < 3.70
  pIC50: 5.34

## CCOC(CN(C)C(=O)OCC(Cl)(Cl)Cl)OCC
  pEC50: < 4.65
  pIC50: < 4.65

## C1C2OC2C2C1C1CC2C2OC12 (configuration not stated)
  pEC50: < 2.82
  pIC50: < 2.82

## COc1ccc(C=C(C(=O)O)C(=O)O)cc1
  pEC50: < 2.95
  pIC50: < 2.95

## CCCCCCN(CCCCCC)C(=O)Cc1c2n(c3ccccc13)Cc1ccccc1-2
  pEC50: < 5.20
  pIC50: < 5.20

## [N-]=[N+]=Nc1c(Cl)c(Cl)nc2ccccc12
  pEC50: < 3.70
  pIC50: 4.21

## OC1CN2CCC[C@@H](O)[C@@H]2C1O (some centres not stated)
  pEC50: < 3.70
  pIC50: < 3.70

## CCN(CC)CCCNc1c2cc(OC)ccc2nc2cccc([N+](=O)[O-])c12
  pEC50: < 5.70
  pIC50: 7.39

## CCOP(=O)(OCC)C1CCCCOC1=O (configuration not stated)
  outcome: inactive

## O=C(C=C1SCCS1)/C=C\c1ccc(Cl)cc1
  pEC50: < 4.45
  pIC50: < 4.45

## C=CCN1C(=O)C/C(=C2/CCC(=O)N2CC=C)C1=O
  pEC50: < 3.02
  pIC50: < 3.02

## CCCCOC(=O)OC1CCC2(C)CC3C=CC2(OO3)C1(C)C (configuration not stated)
  pEC50: < 4.70
  pIC50: 5.37

## O=C(Nc1ccc(Cl)c(C(F)(F)F)c1)C(=O)c1c(O)c2ccccc2oc1=O
  pEC50: < 3.64
  pIC50: 3.72

## Cc1cn(COCCOP(=O)(OCOC(=O)C(C)(C)C)OCOC(=O)C(C)(C)C)c(=O)[nH]c1=O
  pEC50: < 3.70
  pIC50: 3.96

## Cc1cc2c(O)c(c1)COCc1cc(C)cc(c1O)COCc1cc(C)cc(c1O)COC2
  pEC50: < 3.70
  pIC50: 3.86

## CCOC(=O)c1[nH]cc(C)c1-c1c[nH]c2ccccc12
  pEC50: < 3.70
  pIC50: 4.61

## N=C1C(=O)NC(=O)C1c1ccccc1 (configuration not stated)
  pEC50: < 3.70
  pIC50: 3.82

## C1CCN2CC3CONC3C2C1 (configuration not stated)
  pEC50: < 2.83
  pIC50: < 2.83

## C/C(NNC(=O)c1ccccc1O)=C1\C=Nc2ccccc2S1
  pEC50: < 4.80
  pIC50: 7.10
